Results as given in patent publication US9969775B2, “CGRP antagonist peptides” (Ferring B.V., priority 2015, dated 2018).
Where two headings read alike, the source gives them in different places. Numbered stars: 1 amine (or outer) side, 2 acyl side, 3 side chain; on linkers, the order of the positions; unused ones are H or OH. Bridge positions count the residues as written; N and C are the ends. Square brackets hold non-standard residues; d marks the D form. Peptide text beside a SMILES is read from it. * marks the point of attachment. Phe(3-CH2NH2) = O=C([C@H](Cc1cccc(CN[*:3])c1)N[*:1])[*:2]; Phe(4-NHCONH2) = NC(=O)Nc1ccc(C[C@H](N)C(=O)O)cc1; Phe(3-CONH2) = NC(=O)c1cccc(C[C@H](N)C(=O)O)c1; Phe(2-CONH2) = NC(=O)c1ccccc1C[C@H](N)C(=O)O; X13 = N#CN=C(N)NCC[C@H](N[*:1])C(=O)[*:2]; X5 = O=C([C@H](Cc1ccc(CO)cc1)N[*:1])[*:2]; Phe(3-CN) = N#Cc1cccc(C[C@H](N)C(=O)O)c1; X14 = CCN(CC)CCC[C@H](N[*:1])C(=O)[*:2]; Imidazole4carbonyl = O=C(c1cnc[nH]1)*; Orn(iPr) = CC(C)NCCC[C@H](N)C(=O)O; Benzoyl(4-F) = O=C(c1ccc(F)cc1)*; Oxazole2carbonyl = O=C(c1ncco1)*; 3Pal = N[C@@H](Cc1cccnc1)C(=O)O; Picolinoyl = O=C(c1ccccn1)*; ΔPro = O=C(O)[C@@H]1C=CCN1; Orn = NCCC[C@H](N)C(=O)O; X1 = O=C(c1ncccc1F)*

What was measured:
[1] = biological target: T1, hCGRP receptor (CALCRL:RAMP1) (Homo sapiens, UniProt O60894+Q16602); assay: CGRP receptor antagonist activity measured by cAMP assay (HTRF); format: cell-based; conditions: for IC50: GeneBLAzer CALCRL:RAMP1-CRE-bla Freestyle 293F cells, 30 minutes; for Emax: read-out: hCGRP-R Efficacy Antag (%) Ave
T1 construct: host or cells: GeneBLAzer CALCRL:RAMP1-CRE-bla Freestyle 293F
T1 sequence (Q16602 23-461): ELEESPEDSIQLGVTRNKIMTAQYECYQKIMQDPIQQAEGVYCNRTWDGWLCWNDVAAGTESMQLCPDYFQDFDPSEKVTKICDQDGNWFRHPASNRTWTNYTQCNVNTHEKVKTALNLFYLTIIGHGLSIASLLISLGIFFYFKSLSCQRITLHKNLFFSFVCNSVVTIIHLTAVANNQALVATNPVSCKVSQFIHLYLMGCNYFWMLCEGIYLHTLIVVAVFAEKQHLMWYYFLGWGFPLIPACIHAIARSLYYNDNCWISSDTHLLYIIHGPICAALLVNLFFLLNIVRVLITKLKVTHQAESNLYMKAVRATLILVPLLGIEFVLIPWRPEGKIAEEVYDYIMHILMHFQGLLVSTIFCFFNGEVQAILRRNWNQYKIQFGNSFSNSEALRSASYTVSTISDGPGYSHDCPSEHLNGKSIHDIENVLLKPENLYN
T1 sequence (O60894 27-148): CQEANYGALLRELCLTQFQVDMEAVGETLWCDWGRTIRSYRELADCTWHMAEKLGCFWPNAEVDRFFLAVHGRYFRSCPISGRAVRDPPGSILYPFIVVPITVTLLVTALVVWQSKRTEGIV

[2] = biological target: T2, hAM2 receptor (CALCRL:RAMP3) (Homo sapiens, UniProt O60896+Q16602); assay: AM2 receptor antagonist activity measured by cAMP assay (HTRF); format: cell-based; conditions: for IC50: GeneBLAzer CALCRL:RAMP3-CRE-bla Freestyle 293F cells; for Emax: read-out: hAM2-R Efficacy Antag (%) Ave; for selectivity ratio CGRP/AM2: selectivity ratio for hCGRP over hAM2, calculated from the IC50 values
T2 construct: expressed in transfected cells; host or cells: GeneBLAzer CALCRL:RAMP3-CRE-bla Freestyle 293F
T2 sequence (Q16602 23-461): as the sequence (Q16602 23-461) above
T2 sequence (O60896 24-148): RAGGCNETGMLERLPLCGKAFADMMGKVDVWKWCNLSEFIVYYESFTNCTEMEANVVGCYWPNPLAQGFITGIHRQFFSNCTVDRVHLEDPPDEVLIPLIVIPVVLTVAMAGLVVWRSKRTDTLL
Description: Antagonist activity for the adrenomedullin receptor AM2 was determined using the method described in Example 6 above, with the following modifications. Instead of GeneBLAzer® CALCRL:RAMP1-CRE-bla Freestyle™ 293F cells, GeneBLAzer® CALCRL:RAMP3-CRE-bla Freestyle™ 293F cells were used to test activity at hAM2 receptors. The agonist was human adrenomedullin, instead of α-CGRP.
In Table 5, the selectivity ratio for hCGRP over hAM2 is calculated as hCGRP-R IC50/hAM2-R IC50.

[3] = % MPE: percent of the maximal possible effect, agonist human α-CGRP
[4] = agonist human α-CGRP, read-out: hCGRP-R IC50 Ave
[5] = % MPE: percent of the maximal possible effect, agonist human adrenomedullin
[6] = agonist human adrenomedullin, read-out: hAM2-R IC50 Ave

Structure (SMILES)	IC50 ([1]; hCGRP-R IC50 Ave, agonist human α-CGRP)	Emax [1]	IC50 ([2]; hAM2-R IC50 Ave, agonist human adrenomedullin)	Emax [2]	selectivity ratio CGRP/AM2 [2]	Emax [1, 3]	IC50 [1, 4]	Emax [2, 5]	IC50 [2, 6]
CC(C)NCCC[C@@H]1NC(=O)[C@@H](NC(=O)[C@H](Cc2ccccc2C(N)=O)NC(=O)[C@H](NC(=O)c2ncco2)C(C)C)CSSC[C@@H](C(=O)N[C@@H](Cc2cccnc2)C(N)=O)NC(=O)[C@H](Cc2cccnc2)NC(=O)[C@@H]2CCCN2C(=O)CNC(=O)[C@H](C(C)C)NC(=O)[C@H](CC(=O)O)NC1=O [Compound 40, Oxazole-2-carbonyl-D-Val-Phe(2-Cbm)-c(Cys-Orn(iPr)-Asp-Val-Gly-Pro-3Pal-Cys)-3Pal-NH2] (Oxazole2carbonyl-[dV][Phe(2-CONH2)]C[Orn(iPr)]DVGP[3Pal]C[3Pal]-NH2; disulfide 3-10)	0.09 nM	100%	980 nM	98%	10884	–	–	–	–
CC(C)NCCC[C@@H]1NC(=O)[C@@H](NC(=O)[C@H](Cc2ccccc2C(N)=O)NC(=O)[C@H](NC(=O)c2ncco2)C(C)C)CSSC[C@@H](C(=O)N[C@@H](Cc2cccnc2)C(N)=O)NC(=O)[C@H](Cc2ccc(NC(N)=O)cc2)NC(=O)[C@@H]2C=CCN2C(=O)CNC(=O)[C@H](C(C)C)NC(=O)[C@H](CC(=O)O)NC1=O [Compound 60, Oxazole-2-carbonyl-D-Val-Phe(2-Cbm)-c(Cys-Orn(iPr)-Asp-Val-Gly-Dhp-4Uph-Cys)-3Pal-NH2] (Oxazole2carbonyl-[dV][Phe(2-CONH2)]C[Orn(iPr)]DVG[ΔPro][Phe(4-NHCONH2)]C[3Pal]-NH2; disulfide 3-10)	–	–	–	–	3759	100%	0.12 nM	100%	444 nM
CC(C)[C@@H]1NC(=O)[C@H](CC(=O)O)NC(=O)[C@H](CCNC(N)=NC#N)NC(=O)[C@@H](NC(=O)[C@H](Cc2ccc(O)cc2)NC(=O)[C@H](NC(=O)c2ccc(F)cc2)C(C)C)CSSC[C@@H](C(=O)N[C@@H](Cc2cccnc2)C(N)=O)NC(=O)[C@H](Cc2ccccc2)NC(=O)[C@@H]2CCCN2C(=O)CNC1=O [Compound 19, Bz(4-F)-D-Val-Tyr-c(Cys-norArg(CN)-Asp-Val-Gly-Pro-Phe-Cys)-3Pal-NH2] ({Benzoyl(4-F)}-[dV]YC[X13]DVGPFC[3Pal]-NH2; disulfide 3-10)	–	–	–	–	–	100%	–	100%	–
CC(C)[C@@H]1NC(=O)[C@H](CC(=O)O)NC(=O)[C@H](CCCNC(=N)N)NC(=O)[C@@H](NC(=O)[C@H](Cc2ccc(O)cc2)NC(=O)[C@H](NC(=O)c2ccc(F)cc2)C(C)C)CSSC[C@@H](C(=O)N[C@@H](Cc2cccnc2)C(N)=O)NC(=O)[C@H](Cc2ccccc2)NC(=O)[C@@H]2C=CCN2C(=O)CNC1=O [Compound 4, Bz(4-F)-D-Val-Tyr-c(Cys-Arg-Asp-Val-Gly-Dhp-Phe-Cys)-3Pal-NH2] ({Benzoyl(4-F)}-[dV]YCRDVG[ΔPro]FC[3Pal]-NH2; disulfide 3-10)	–	–	–	–	172	100%	0.17 nM	113%	29 nM
CC(C)[C@@H]1NC(=O)[C@H](CC(=O)O)NC(=O)[C@H](CCCN)NC(=O)[C@@H](NC(=O)[C@H](Cc2ccc(O)cc2)NC(=O)[C@H](NC(=O)c2ncccc2F)C(C)C)CSSC[C@@H](C(=O)N[C@@H](Cc2cccnc2)C(N)=O)NC(=O)[C@H](Cc2ccc(CO)cc2)NC(=O)[C@@H]2CCCN2C(=O)CNC1=O [Compound 29, Picolinoyl(3-F)-D-Val-Tyr-c(Cys-Orn-Asp-Val-Gly-Pro-Phe(4-CH2OH)-Cys)-3Pal-NH2] (X1-[dV]YC[Orn]DVGP[X5]C[3Pal]-NH2; disulfide 3-10)	–	–	–	–	1699	100%	0.09 nM	98%	148 nM
CC(C)[C@@H]1NC(=O)[C@H](CC(=O)O)NC(=O)[C@H](CCCNC(=N)N)NC(=O)[C@@H](NC(=O)[C@H](Cc2ccc(O)cc2)NC(=O)[C@H](NC(=O)c2cnc[nH]2)C(C)C)CSSC[C@@H](C(=O)N[C@@H](Cc2cccnc2)C(N)=O)NC(=O)[C@H](Cc2ccccc2)NC(=O)[C@@H]2CCCN2C(=O)CNC1=O [Compound 47] (Imidazole4carbonyl-[dV]YCRDVGPFC[3Pal]-NH2; disulfide 3-10)	–	–	–	–	–	–	0.16 nM	–	232 nM
CC(C)[C@@H]1NC(=O)[C@H](CC(=O)O)NC(=O)[C@H](CCCNC(=N)N)NC(=O)[C@@H](NC(=O)[C@H](Cc2ccc(O)cc2)NC(=O)[C@H](NC(=O)c2c[nH]cn2)C(C)C)CSSC[C@@H](C(=O)N[C@@H](Cc2cccnc2)C(N)=O)NC(=O)[C@H](Cc2ccccc2)NC(=O)[C@@H]2CCCN2C(=O)CNC1=O [Compound 47] (Imidazole4carbonyl-[dV]YCRDVGPFC[3Pal]-NH2; disulfide 3-10)	–	–	–	–	1460	100%	–	99%	–
CCN(CC)CCC[C@@H]1NC(=O)[C@@H](NC(=O)[C@H](Cc2ccc(O)cc2)NC(=O)[C@H](NC(=O)c2ccccn2)C(C)C)CSSC[C@@H](C(=O)N[C@@H](Cc2cccnc2)C(N)=O)NC(=O)[C@H](Cc2ccccc2)NC(=O)[C@@H]2CCCN2C(=O)CNC(=O)[C@H](C(C)C)NC(=O)[C@H](CC(=O)O)NC1=O [Compound 24, Picolinoyl-D-Val-Tyr-c(Cys-Orn(Et2)-Asp-Val-Gly-Pro-Phe-Cys)-3Pal-NH2] (Picolinoyl-[dV]YC[X14]DVGPFC[3Pal]-NH2; disulfide 3-10)	–	–	–	–	1213	100%	0.11 nM	98%	128 nM
CC(C)[C@@H]1NC(=O)[C@H](CC(=O)O)NC(=O)[C@H](CCCNC(=N)N)NC(=O)[C@@H](NC(=O)[C@H](Cc2cccc(CN)c2)NC(=O)[C@H](NC(=O)c2ccc(F)cc2)C(C)C)CSSC[C@@H](C(=O)N[C@@H](Cc2cccnc2)C(N)=O)NC(=O)[C@H](Cc2ccc(O)cc2)NC(=O)[C@@H]2C=CCN2C(=O)CNC1=O [Compound 22, Bz(4-F)-D-Val-Phe(3-CH2NH2)-c(Cys-Arg-Asp-Val-Gly-Dhp-Tyr-Cys)-3Pal-NH2] ({Benzoyl(4-F)}-[dV][Phe(3-CH2NH2)]CRDVG[ΔPro]YC[3Pal]-NH2; disulfide 3-10)	–	–	–	–	175	100%	0.19 nM	101%	33 nM
CC(C)[C@@H]1NC(=O)[C@H](CC(=O)O)NC(=O)[C@H](CCCNC(=N)N)NC(=O)[C@@H](NC(=O)[C@H](Cc2ccc(O)cc2)NC(=O)[C@H](NC(=O)c2ccc(F)cc2)C(C)C)CSSC[C@@H](C(=O)N[C@@H](Cc2cccnc2)C(N)=O)NC(=O)[C@H](Cc2cccc(C#N)c2)NC(=O)[C@@H]2CCCN2C(=O)CNC1=O [Compound 21, Bz(4-F)-D-Val-Tyr-c(Cys-Arg-Asp-Val-Gly-Pro-Phe(3-CN)-Cys)-3Pal-NH2] ({Benzoyl(4-F)}-[dV]YCRDVGP[Phe(3-CN)]C[3Pal]-NH2; disulfide 3-10)	–	–	–	–	258	100%	0.13 nM	99%	33 nM
CC(C)[C@@H]1NC(=O)[C@H](CC(=O)O)NC(=O)[C@H](CCCNC(=N)N)NC(=O)[C@@H](NC(=O)[C@H](Cc2cccc(CN)c2)NC(=O)[C@H](NC(=O)c2ncco2)C(C)C)CSSC[C@@H](C(=O)N[C@@H](Cc2cccnc2)C(N)=O)NC(=O)[C@H](Cc2cccc(C(N)=O)c2)NC(=O)[C@@H]2C=CCN2C(=O)CNC1=O [Compound 23, Oxazole-2-carbonyl-D-Val-Phe(3-CH2NH2)-c(Cys-Arg-Asp-Val-Gly-Dhp-Phe(3-Cbm)-Cys)-3Pal-NH2] (Oxazole2carbonyl-[dV][Phe(3-CH2NH2)]CRDVG[ΔPro][Phe(3-CONH2)]C[3Pal]-NH2; disulfide 3-10)	–	–	–	–	400	100%	0.05 nM	100%	21 nM
